{
  "source": "patent US20220241308A1",
  "about": "“NEURONAL FUNCTION MODULATING AGENT” (University of Tsukuba, priority 2019, published 2022)",
  "key": {"[1]": {"system": "SH-SY5Y cells", "assay": "ATP production measurement experiment", "type": "cell-based", "settings": "12.56 μM; 6 h, 12 h, 24 h; compared to “Control”", "description": "Specifically, ATP production was measured according to the protocol recommended by Toyo B-NET (URL: https://search.cosmobio.co.jp/cosmo_search_p/search_gate2/docs/TIC_/CA10.20131125.pdf) using an ATP assay reagent (“Cell” ATP Assay reagent, Toyo B-NET) (designated as “Control” in FIG. 9).\n(§1) Each well of a 96-well plate (BD Biocoat) was seeded with SH-SY5Y cells (model of neuronal cells, ATCC) at a concentration of 2×10^5 cells/mL (100 μL/well) and the cells were cultured at 37° C. and 5% CO2 for 24 h. Culture medium used was F12/DMEM (Gibco) supplemented with 1% non-essential amino acids (Gibco), 15% FBS (Bio West), and 1% penicillin/streptomycin (Lonza).\nAfter 24 h, the culture medium was completely removed with an aspirator, 100 μL of culture medium Opti-MEM (Gibco) was added to each well, and the cells were cultured for 6 h, 12 h, and 24 h at 37° C. and 5% CO2. After each culturing time point, 100 μL of ATP assay reagent (“Cell” ATP Assay reagent, Toyo Ink)) was added to each well and mixed and the mixture was allowed to stand for reaction for 10 min at room temperature in dark conditions. […] Light emission after a lapse of a predetermined time was measured on a microplate reader (Sumitomo Dainippon Pharma) to find ATP production (designated as “Control” in FIG. 9). […]"}, "[2]": {"system": "SH-SY5Y cells", "assay": "Reactive oxygen species measurement experiment (OxiSelect Intracellular ROS assay kit)", "type": "cell-based", "settings": "12.56 μM with amyloid β protein 5 μM, 1 h", "description": "Specifically, OxiSelect™ Intracellular ROS assay kit (Cell Biolabs Ink) was used to measure the reactive oxygen species level according to protocol recommended by Cell Biolabs Ink (URL: https://www.cellbiolabs.com/sites/default/files/STA-342-ROS-assay-kit.pdf)) of Cell Biolabs Ink Co., Ltd. (designated as “Control” in FIG. 10).\nas §1, with “(ATCC, model” for “(model”, “cells)” for “cells, ATCC)”, “cells” for “cells were”\nAfter 24 h, the culture medium was completely removed with an aspirator, 20×DCFH-DA (reagent included in the assay kit) was mixed with culture medium Opti-MEM (Gibco) (reagent was diluted 20 times), 100 μL of the mixture was added to each well, and the cells were cultured at 37° C. and 5% CO2 for 1 h. The culture medium Opti-MEM with 20×DCFH-DA was then completely removed with an aspirator, […] of fresh Opti-MEM (Gibco) was added to each well, and the cells were cultured at 37° C. and 5% CO2 for 1 h. […] Fluorescence at 480 nm/530 nm was measured on a microplate reader (Sumitomo Dainippon Pharma) to find the relative ROS production (designated as “Control” in FIG. 10). […]"}},
  "data": [
    {"compound": "COc1cc(-c2[o+]c3cc(O)cc(OC4OC(CO)C(O)C(O)C4O)c3cc2OC2OC(CO)C(O)C(O)C2O)cc(OC)c1O", "note": "(stereo not drawn) [M3,5G, Malvidin-3,5-diglucoside chloride]", "values": [
      {"measurement": "ATP production", "setting": "[1]", "result": "increased ATP production"},
      {"measurement": "ROS production", "setting": "[2]; compared to “Aβ”", "result": "significant reductions"},
      {"measurement": "ROS production", "setting": "[2]; compared to “Control”", "result": "no significance"}
    ]}
  ]
}
